Data set [1] deals with PACE4 mRNA. Kind of data set: Aggrecanase activity in TNF-α and OSM stimulated cultured human chondrocytes after PACE4 RNAi. The data set is classed as cell-based. The following applies: 100 nM dsRNA; human chondrocytes stimulated with TNF-α and OSM; vs stimulated controls; FIG. 1. On the procedure:
(§1) The sequence CGGCAAUGAUUAUGACCCAtt (SEQ ID NO. 2) was selected as a sense strand for dsRNA. The corresponding antisense strand, UGGGUCAUAAUCAUUGCCGtt, (SEQ ID NO. 3) was also selected. dsRNA was synthesized commercially (Ambion, Austin, Tex. 78744-1832 USA) and 100 nM was introduced into cultured human chondrocytes and human cartilage stimulated with TNF-α and Oncostatin M (OSM). It is known that stimulation of cartilage or chondrocytes with TNF-α and OSM will induce cartilage degradation and upregulate aggrecanase. Nonsense dsRNA, that is, dsRNA with the same […], but scrambled in sequence, were introduced into cultured human chondrocytes and human cartilage explants as controls. The control groups are not expected to induce RNAi, since the dsRNA is not expected to produce an inhibitory effect on mRNA. […] 2 and SEQ ID NO. 3.

Data set [2] has as its system PACE4 mRNA. Kind of data set: Electrophoresis gel of aggrecan degradation products in TNF/OSM treated cartilage explants. The class given is cell-based, human. As to conditions: 100 nM dsRNA, vs controls, FIG. 2. The procedure: FIG. 2 depicts an electrophoresis gel showing aggrecan-degradation products in untreated (lane 1), TNF/OSM treated control (lane 2) and TNF/OSM treated, PACE4 siRNA treated cartilage explants; and
as §1
Referring now to FIG. 2, the aggrecanase mediated cleavage of aggrecan, shown by the aggrecan derived peptide neopitope fragment AGEG (SEQ ID NO. 10) and the aggrecan derived peptide neopepitope fragment ARGS (SEQ ID NO. 11) was reduced with interfering dsRNA, as compared to controls.

In data set [3] the test system is PACE4 mRNA. Kind of data set: Glycosaminoglycan (GAG) release from TNF/OSM treated cartilage explants into the supernatant. The data set is classed as cell-based, human. The following applies: 100 nM dsRNA, vs nonsense dsRNA, FIG. 3.
Text: FIG. 3 is a bar graph showing glycosaminoglycan (GAG) release from cartilage explants into the supernatant is reduced in TNF/OSM treated cartilage explants with the addition of siRNA of SEQ ID NO. 2 and SEQ ID NO. 3 (narrow shaded bar) as compared with normal control (unshaded bar) and TNF/OSM treated cartilage explants with nonsense dsRNA.
as §1
Glycosaminoglycan (GAG) release from proteoglycan and depressed proteoglycan synthesis are thought to be correlated with cartilage destruction in arthritis. […]

On to “siRNA of SEQ ID NO. 2 and SEQ ID NO. 3: dsRNA: sense strand CGGCAAUGAUUAUGACCCAtt (SEQ ID NO. 2), antisense strand UGGGUCAUAAUCAUUGCCGtt (SEQ ID NO. 3); inhibits PACE4 mRNA (sense CGGCAAUGAUUAUGACCCATT; antisense UGGGUCAUAAUCAUUGCCGTT; dsRNA with lower-case tt overhangs, chemistry of tt not given here, further chemistry not given here)”, for which the “reduction in aggrecanase activity” value in the data set on PACE4 mRNA [1] was “greater than eighty percent reduction”. Moreover, the “aggrecanase mediated cleavage of aggrecan (neoepitope fragments AGEG and ARGS)” value in the data set on PACE4 mRNA [2] was “reduced”. In the data set with PACE4 mRNA [3], the “glycosaminoglycan (GAG) release from cartilage explants into the supernatant” value is listed as “reduced”.
